Article PMC5099554 (British Journal of Clinical Pharmacology, 2016)
Like-named read-outs stand apart in the source and are kept apart here.

Experiments:
CYP3A4 = CYP3A4 (Homo sapiens, UniProt P08684); settings: in vitro; cited from earlier work
[1] = for AUC(0-inf) / AUC(0-t) / half-life / Tmax: male, human, in vivo; for AUC(0-inf): AUCinf; for AUC(0-inf) / AUC(0-t): geometric mean; for AUC(0-t): AUClast; for half-life: t 1/2, geometric mean
CYP1A2 = settings: cited from earlier work
CYP enzyme = settings: in vitro studies; cited from earlier work
CYP2C9 = CYP2C9 (Homo sapiens, UniProt P11712); settings: in vitro; cited from earlier work
Sequence of CYP2C9 (P11712 whole entry): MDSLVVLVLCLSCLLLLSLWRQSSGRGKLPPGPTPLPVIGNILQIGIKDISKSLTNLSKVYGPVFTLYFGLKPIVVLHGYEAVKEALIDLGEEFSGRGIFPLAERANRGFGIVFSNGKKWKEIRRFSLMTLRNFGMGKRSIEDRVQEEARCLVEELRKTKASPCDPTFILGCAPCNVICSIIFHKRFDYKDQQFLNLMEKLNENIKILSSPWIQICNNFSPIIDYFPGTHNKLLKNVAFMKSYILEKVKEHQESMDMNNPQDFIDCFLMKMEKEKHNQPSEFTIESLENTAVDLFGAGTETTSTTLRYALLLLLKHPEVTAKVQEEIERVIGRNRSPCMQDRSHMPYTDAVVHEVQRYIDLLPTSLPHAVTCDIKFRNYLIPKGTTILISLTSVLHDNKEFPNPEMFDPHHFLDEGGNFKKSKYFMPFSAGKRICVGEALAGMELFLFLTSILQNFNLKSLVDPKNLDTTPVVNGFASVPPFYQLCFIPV

[2] = healthy male subjects, plasma, after 2 weeks of fermented red ginseng
[3] = healthy male subjects, plasma, before fermented red ginseng
[4] = After FRG, healthy male subjects, plasma, after 2 weeks of fermented red ginseng
[5] = Before FRG, healthy male subjects, plasma, before fermented red ginseng
[6] = t max (median), Before FRG, healthy male subjects, plasma, before fermented red ginseng
[7] = t max (median), After FRG, healthy male subjects, plasma, after 2 weeks of fermented red ginseng

Sequence of CYP3A4 (P08684 whole entry): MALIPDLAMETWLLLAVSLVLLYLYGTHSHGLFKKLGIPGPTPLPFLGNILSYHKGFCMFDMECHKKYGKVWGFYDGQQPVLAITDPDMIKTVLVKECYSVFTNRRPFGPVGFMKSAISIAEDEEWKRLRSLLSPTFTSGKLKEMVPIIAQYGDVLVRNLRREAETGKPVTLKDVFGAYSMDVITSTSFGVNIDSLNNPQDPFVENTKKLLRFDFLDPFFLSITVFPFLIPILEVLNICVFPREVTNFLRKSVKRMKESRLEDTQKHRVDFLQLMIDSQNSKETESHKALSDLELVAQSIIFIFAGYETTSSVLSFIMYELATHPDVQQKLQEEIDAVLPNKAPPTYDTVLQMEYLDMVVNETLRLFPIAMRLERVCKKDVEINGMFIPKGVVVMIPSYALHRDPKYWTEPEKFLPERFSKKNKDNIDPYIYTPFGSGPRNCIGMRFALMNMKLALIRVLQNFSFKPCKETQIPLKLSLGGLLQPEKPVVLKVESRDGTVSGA

| Compound | AUCinf, geometric mean ratio, After FRG: Before FRG (90% CI) ([1]; healthy male subjects, plasma) | AUClast, geometric mean ratio, After FRG: Before FRG (90% CI) ([1]; healthy male subjects, plasma) | C max, geometric mean ratio, After FRG: Before FRG (90% CI) ([1]; healthy male subjects, plasma) | AUC(0-inf) [1, 4] | AUC(0-inf) [1, 5] | AUC(0-t) [1, 4] | AUC(0-t) [1, 5] | half-life [1, 4] | half-life [1, 5] | also measured |
| --- | --- | --- | --- | --- | --- | --- | --- | --- | --- | --- |
| CC(C)=CCCC(C)(O)[C@H]1CC[C@]2(C)[C@@H]1[C@H](O)C[C@@H]1[C@@]3(C)CC[C@H](O)C(C)(C)[C@@H]3CC[C@]12C (stereo in doubt) [PPD, protopanaxadiol] | – | – | – | – | – | – | – | – | – | inhibition of CYP3A4 activity (CYP3A4): potent inhibition |
| OCc1ncc2n1-c1ccc(Cl)cc1C(c1ccccc1F)=NC2 [1‐hydroxymidazolam] | 0.924 (0.791–1.080) | 0.944 (0.805–1.107) | 0.750 (0.583–0.966) | – | – | – | – | – | – | AUCinf, geometric mean, After FRG [1, 2]: 74.221 ng·h/mL; AUClast, geometric mean, After FRG [1, 2]: 69.474 ng·h/mL; t 1/2, geometric mean, After FRG [1, 2]: 0.678 h; t max (median), After FRG [1, 2]: 0.517 h; AUCinf, geometric mean, Before FRG [1, 3]: 80.311 ng·h/mL; AUClast, geometric mean, Before FRG [1, 3]: 73.587 ng·h/mL; t 1/2, geometric mean, Before FRG [1, 3]: 0.728 h; t max (median), Before FRG [1, 3]: 0.500 h |
| COc1ccc2nc([S+]([O-])Cc3ncc(CO)c(OC)c3C)[nH]c2c1 (stereo not shown) [5‐hydroxyomeprazole] | 1.050 (0.961–1.147) | 0.979 (0.918–1.045) | 0.945 (0.859–1.039) | – | – | – | – | – | – | AUCinf, geometric mean, After FRG [1, 2]: 283.859 ng·h/mL; AUClast, geometric mean, After FRG [1, 2]: 239.033 ng·h/mL; t 1/2, geometric mean, After FRG [1, 2]: 2.716 h; t max (median), After FRG [1, 2]: 3.000 h; AUCinf, geometric mean, Before FRG [1, 3]: 270.368 ng·h/mL; AUClast, geometric mean, Before FRG [1, 3]: 244.051 ng·h/mL; t 1/2, geometric mean, Before FRG [1, 3]: 1.971 h; t max (median), Before FRG [1, 3]: 3.000 h |
| Cn1c(=O)c2c(ncn2C)n(C)c1=O [Caffeine, caffeine] | 1.165 (1.002–1.356) | 1.128 (0.997–1.277) | 1.002 (0.857–1.171) | 57500 ng·h/mL | 49300 ng·h/mL | 51300 ng·h/mL | 45500 ng·h/mL | 6.94 h | 5.5 h | fraction metabolized to paraxanthine by CYP1A2 (CYP1A2): over 95%; Tmax [1, 6]: 0.5 h |
| COc1ccc2c(c1)[C@]13CCCC[C@@H]1[C@H](C2)N(C)CC3 [Dextromethorphan, dextromethorphan] | 0.869 (0.638–1.184) | 0.907 (0.681–1.209) | 0.849 (0.688–1.047) | 43.5 ng·h/mL | 50.1 ng·h/mL | 17.1 ng·h/mL | 18.9 ng·h/mL | – | – | t 1/2, geometric mean, After FRG [1, 2]: 7.006 h; t 1/2, geometric mean, Before FRG [1, 3]: 7.540 h; Tmax [1]: 2 h |
| CN1CC[C@@]23CCCC[C@@H]2[C@@H]1Cc1ccc(O)cc13 [Dextrorphan, dextrorphan] | 1.042 (0.932–1.164) | 1.044 (0.926–1.176) | 1.024 (0.876–1.198) | 66.1 ng·h/mL | 63.5 ng·h/mL | 60.3 ng·h/mL | 57.7 ng·h/mL | 3.43 h | 3.92 h | t max (median), Before FRG [1, 3]: 2.000 h |
| CCCCc1nc(Cl)c(C(=O)O)n1Cc1ccc(-c2ccccc2-c2nn[nH]n2)cc1 [EXP3174] | 0.813 (0.687–0.963) | 0.811 (0.684–0.963) | 0.832 (0.694–0.997) | 2610 ng·h/mL | 3210 ng·h/mL | 2500 ng·h/mL | 3080 ng·h/mL | – | – | Tmax [1, 7]: 4 h; Tmax [1, 6]: 3 h |
| CCCCc1nc(Cl)c(CO)n1Cc1ccc(-c2ccccc2-c2nn[nH]n2)cc1 [Losartan, losartan] | 1.047 (0.887–1.237) | 1.048 (0.887–1.239) | 0.974 (0.797–1.190) | 549 ng·h/mL | 524 ng·h/mL | 542 ng·h/mL | 517 ng·h/mL | 1.94 h | 1.86 h | Tmax [1, 7]: 1.5 h; Tmax [1, 6]: 1.5 h |
| Cc1ncc2n1-c1ccc(Cl)cc1C(c1ccccc1F)=NC2 [Midazolam, midazolam] | 1.138 (1.007–1.285) | 1.157 (1.022–1.309) | 0.873 (0.732–1.041) | 126 ng·h/mL | 110 ng·h/mL | 119 ng·h/mL | 103 ng·h/mL | 2.96 h | 3.3 h | – |
| COc1ccc2[nH]c([S+]([O-])Cc3ncc(C)c(OC)c3C)nc2c1 (stereo not shown) [Omeprazole, omeprazole] | 0.936 (0.819–1.069) | 0.931 (0.812–1.067) | 0.892 (0.747–1.066) | 1280 ng·h/mL | 1370 ng·h/mL | 1260 ng·h/mL | 1350 ng·h/mL | 1.22 h | 1.19 h | t max (median), Before FRG [1, 3]: 2.000 h |
| CC(C)=CCC[C@](C)(O)[C@H]1CC[C@]2(C)[C@@H]1[C@H](O)C[C@@H]1[C@@]3(C)CC[C@H](O)C(C)(C)[C@@H]3[C@@H](O)C[C@]12C [PPT, protopanaxatriol] | – | – | – | – | – | – | – | – | – | inhibition of CYP3A4 activity (CYP3A4): potent inhibition |
| Cn1c(=O)[nH]c2ncn(C)c2c1=O [Paraxanthine, paraxanthine] | 1.432 (1.125–1.823) | 1.017 (0.943–1.096) | 0.979 (0.906–1.057) | 53900 ng·h/mL | 37600 ng·h/mL | 24600 ng·h/mL | 24200 ng·h/mL | 20.7 h | 11.8 h | Tmax [1, 7]: 6 h |
| CC(C)=CCC[C@](C)(O[C@@H]1O[C@H](CO[C@@H]2OC[C@H](O)[C@H](O)[C@H]2O)[C@@H](O)[C@H](O)[C@H]1O)[C@H]1CC[C@]2(C)[C@@H]1[C@H](O)C[C@@H]1[C@@]3(C)CC[C@H](O[C@@H]4O[C@H](CO)[C@@H](O)[C@H](O)[C@H]4O[C@@H]4O[C@H](CO)[C@@H](O)[C@H](O)[C@H]4O)C(C)(C)[C@@H]3CC[C@]12C [Rb2, ginsenoside Rb2] | – | – | – | – | – | – | – | – | – | effect on CYP enzyme activity (CYP enzyme): do not affect |
| CC(C)=CCC[C@](C)(O[C@@H]1O[C@H](CO[C@@H]2O[C@@H](CO)[C@H](O)[C@H]2O)[C@@H](O)[C@H](O)[C@H]1O)[C@H]1CC[C@]2(C)[C@@H]1[C@H](O)C[C@@H]1[C@@]3(C)CC[C@H](O[C@@H]4O[C@H](CO)[C@@H](O)[C@H](O)[C@H]4O[C@@H]4O[C@H](CO)[C@@H](O)[C@H](O)[C@H]4O)C(C)(C)[C@@H]3CC[C@]12C [Rc, ginsenoside Rc] | – | – | – | – | – | – | – | – | – | effect on CYP enzyme activity (CYP enzyme): do not affect |
| CC(C)=CCC[C@](C)(O[C@@H]1O[C@H](CO)[C@@H](O)[C@H](O)[C@H]1O)[C@H]1CC[C@]2(C)[C@@H]1[C@H](O)C[C@@H]1[C@@]3(C)CC[C@H](O)C(C)(C)[C@@H]3[C@@H](O[C@@H]3O[C@H](CO)[C@@H](O)[C@H](O)[C@H]3O)C[C@]12C [Rg1, ginsenoside Rg1] | – | – | – | – | – | – | – | – | – | effect on CYP enzyme activity (CYP enzyme): do not affect |
| CC(C)=CCC[C@](C)(O[C@@H]1O[C@H](CO)[C@@H](O)[C@H](O)[C@H]1O)[C@H]1CC[C@]2(C)[C@@H]1[C@H](O)C[C@@H]1[C@@]3(C)CC[C@H](O)C(C)(C)[C@@H]3CC[C@]12C [compound K, 20‐O‐(β‐D‐glucopyranosyl)‐20(S)‐protopanaxadiol] | – | – | – | – | – | – | – | – | – | inhibition of CYP2C9 activity (CYP2C9): moderate inhibition; inhibition of CYP3A4 activity (CYP3A4): moderate inhibition |
| CC(C)=CCC[C@](C)(O[C@@H]1O[C@H](CO[C@@H]2O[C@H](CO)[C@@H](O)[C@H](O)[C@H]2O)[C@@H](O)[C@H](O)[C@H]1O)[C@H]1CC[C@]2(C)[C@@H]1[C@H](O)C[C@@H]1[C@@]3(C)CC[C@H](O[C@@H]4O[C@H](CO)[C@@H](O)[C@H](O)[C@H]4O[C@@H]4O[C@H](CO)[C@@H](O)[C@H](O)[C@H]4O)C(C)(C)[C@@H]3CC[C@]12C [ginsenoside Rb1] | – | – | – | – | – | – | – | – | – | effect on CYP enzyme activity (CYP enzyme): do not affect |
| CC(C)=CCC[C@](C)(O)[C@H]1CC[C@]2(C)[C@@H]1[C@H](O)C[C@@H]1[C@@]3(C)CC[C@H](O[C@@H]4O[C@H](CO)[C@@H](O)[C@H](O)[C@H]4O)C(C)(C)[C@@H]3CC[C@]12C [ginsenoside Rh2] | – | – | – | – | – | – | – | – | – | inhibition of CYP2C9 activity (CYP2C9): moderate inhibition; inhibition of CYP3A4 activity (CYP3A4): moderate inhibition |
